Series [1] addresses Thermococcus litoralis inorganic pyrophosphatase (PPase), wild type, SEQ ID NO: 10 (Thermococcus litoralis, UniProt P77992). Conditions: read-out: apparent Km for PPi (inorganic pyrophosphate); initial velocities at low substrate concentrations, Mg2+/PPi ratio of one; Lineweaver-Burke plot.
Method: The PPase is incubated at 75° C. for 10 minutes in a 100 μl reaction containing 30 mM Tris pH 9.0, 1.5 mM MgCl2 and 1.5 mM sodium pyrophosphate. The enzyme is then cooled quickly to room temperature and complexed with 0.9 ml of Taussky-Schorr reagent (5.0 g ferrous sulfate, 10 ml 10% ammonium molybdate in 10N sulfuric acid, in a final solution volume of 100 ml.) After 10 minutes, an absorbance reading is taken at 660 nm. The absorbance reading was compared to a standard curve using Sigma's (St. Louis, Mo.) phosphorous standard (#661-9). One standard unit will liberate 1.0 μmole of inorganic orthophosphate per minute under the above conditions.
Series [2] deals with the molecule itself. Description: gel filtration on Superose 12 HR 10/30 (125 kDa) against the subunit mass by SDS-PAGE and DNA sequence. As to the method: The molecular mass of the *T. litoralis* inorganic pyrophosphatase was estimated by gel filtration in a Superose 12 HR 10/30 (Pharmacia; Piscataway, N.J.) (10×300 mm). The column was equilibrated with 50 mM Tris-HCl pH 7.5 containing 100 mM NaCl and run at a flow rate of 0.5 ml/min. The Superose 12 HR 10/30 had been previously calibrated with different standard proteins: Catalase (232 kDa), Aldolase (158 kDa), Bovine Serum Albumin (67 KDa), Ovalbumin (43 kDa), Chymotrypsinogen (25 kDa), and Ribonuclease A (13.7 kDa) (all from Pharmacia; Piscataway, N.J.). From the plot of log (molecular mass) versus the distribution coefficient (Kav), a value of 125 kDa was calculated for the molecular mass of *T. litoralis* inorganic pyrophosphatase. Since the apparent molecular mass of the monomer was determined to be 20 to 21 kDa on an SDS-PAGE and 19,666 Da by the DNA sequence, the enzyme is probably homohexameric. The homohexameric structure of the *Thermococcus litoralis* inorganic pyrophosphatase agrees with other known cytoplasmic PPases from eubacterial and archaeal sources which tend to be tetrameric or hexameric complexes with single subunits of 19 to 23 kDa.

2 molecules from patent US5861296A, “Purified thermostable inorganic pyprophosphatase obtainable from thermococcus litoralis” (New England Biolabs, Inc., priority 1997, dated 1999) can be followed below.

By Km is commonly meant the substrate concentration at which the rate is half of its maximum. Regarding `O=P(O)(O)OP(=O)(O)O` [PPi, inorganic pyrophosphate], the Km in series [1] stood at 1000 µM.

B1: Thermococcus litoralis inorganic pyrophosphatase subunit (enzyme)
chain: MNPFHDLEPGPEVPEVVYALIEIPKGSRNKYELDKKTGLIKLDRVLYSPFHYPVDYGIIPQTWYDDDDPFDIMVIMREPTYPGVLIEARPIGLFKMIDSGDKDYKVLAVPVEDPYFNDWKDISDVPKAFLDEIAHFFQRYKELQGKEIIVEGWENAEKAKQEILRAIELYKEKFKK
Take B1: the binding result in series [2] was “binds”.
